Reference: PubChem BioAssay (NCI)
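Test compounds were applied to cells in 96-well plates for 48 hours at 5 doses. TGI: total growth inhibition.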

Columns and labels:
Assay in all cases: growth of human tumour cells (NCI), 48 h
HOP-62 NSCLC = system: HOP-62 NSCLC
KM12 colon = system: KM12 colon
SK-OV-3 ovarian = system: SK-OV-3 ovarian
DU-145 prostate = system: DU-145 prostate
EKVX NSCLC = system: EKVX NSCLC
NCI-H226 lung = system: NCI-H226 lung
MDA-MB-231 breast = system: MDA-MB-231 breast
PC-3 prostate = system: PC-3 prostate
RXF 393 renal = system: RXF 393 renal
SK-MEL-5 melanoma = system: SK-MEL-5 melanoma
ACHN renal = system: ACHN renal
NCI/ADR-RES ovarian = system: NCI/ADR-RES ovarian
NCI-H460 lung = system: NCI-H460 lung
IGROV1 ovarian = system: IGROV1 ovarian
SK-MEL-2 melanoma = system: SK-MEL-2 melanoma
U251 CNS = system: U251 CNS
BT-549 breast = system: BT-549 breast
HCT-15 colon = system: HCT-15 colon
HS 578T breast = system: HS 578T breast
NCI-H522 lung = system: NCI-H522 lung
HOP-92 NSCLC = system: HOP-92 NSCLC
SF-268 CNS = system: SF-268 CNS
UACC-62 melanoma = system: UACC-62 melanoma
A549 NSCLC = system: A549 NSCLC
CCRF-CEM leukemia = system: CCRF-CEM leukemia
SNB-19 CNS = system: SNB-19 CNS
SNB-75 CNS = system: SNB-75 CNS
OVCAR-4 ovarian = system: OVCAR-4 ovarian
OVCAR-8 ovarian = system: OVCAR-8 ovarian
OVCAR-5 ovarian = system: OVCAR-5 ovarian
SF-295 CNS = system: SF-295 CNS
OVCAR-3 ovarian = system: OVCAR-3 ovarian
MALME-3M melanoma = system: MALME-3M melanoma
SN12C renal = system: SN12C renal
786-0 renal = system: 786-0 renal
RPMI-8226 leukemia = system: RPMI-8226 leukemia
SR leukemia = system: SR leukemia
SW-620 colon = system: SW-620 colon
MDA-N = system: MDA-N
HCT-116 colon = system: HCT-116 colon
CAKI-1 renal = system: CAKI-1 renal
HCC-2998 colon = system: HCC-2998 colon
MOLT-4 leukemia = system: MOLT-4 leukemia
A498 renal = system: A498 renal
HT29 colon = system: HT29 colon
COLO 205 colon = system: COLO 205 colon
UO-31 renal = system: UO-31 renal
MDA-MB-435 = system: MDA-MB-435
SF-539 CNS = system: SF-539 CNS
MCF7 breast = system: MCF7 breast
K-562 leukemia = system: K-562 leukemia
M14 melanoma = system: M14 melanoma
TK-10 renal = system: TK-10 renal
UACC-257 melanoma = system: UACC-257 melanoma
LOX IMVI melanoma = system: LOX IMVI melanoma
HL-60(TB) leukemia = system: HL-60(TB) leukemia
NCI-H23 lung = system: NCI-H23 lung
T-47D breast = system: T-47D breast
SK-MEL-28 melanoma = system: SK-MEL-28 melanoma

CC(C)(CN1CCCCC1)C(=O)CC(SCCS(=O)(=O)O)c1ccccc1 (centres undefined) was tested, and the TGI (HOP-62 NSCLC) was 62.1 µM, the TGI (KM12 colon) was 44.8 µM and the TGI (SK-OV-3 ovarian) was over 100 µM. For the same compound, the TGI (DU-145 prostate) was 29.3 µM, the TGI (EKVX NSCLC) was 50.5 µM and the TGI (NCI-H226 lung) was 62 µM. It also gave a TGI (MDA-MB-231 breast) of 32.4 µM, a TGI (PC-3 prostate) of 77.1 µM and a TGI (RXF 393 renal) of 35 µM. For the same compound, the TGI (SK-MEL-5 melanoma) was 31.4 µM, the TGI (ACHN renal) was 52.9 µM and the TGI (NCI/ADR-RES ovarian) was 70.6 µM. The TGI (NCI-H460 lung) was over 100 µM, the TGI (IGROV1 ovarian) was over 100 µM and the TGI (SK-MEL-2 melanoma) was 96.5 µM. The TGI (U251 CNS) was 53.2 µM, the TGI (BT-549 breast) was 49.4 µM and the TGI (HCT-15 colon) was 42.9 µM. It also gave a TGI (HS 578T breast) of 90.1 µM, a TGI (NCI-H522 lung) of 5.83 µM and a TGI (HOP-92 NSCLC) of 25.3 µM. It also gave a TGI (SF-268 CNS) of 65.8 µM, a TGI (UACC-62 melanoma) of 29.5 µM and a TGI (A549 NSCLC) of over 100 µM. For the same compound, the TGI (CCRF-CEM leukemia) was 32.1 µM, the TGI (SNB-19 CNS) was 54.2 µM and the TGI (SNB-75 CNS) was 54.9 µM. It also gave a TGI (OVCAR-4 ovarian) of 49.4 µM, a TGI (OVCAR-8 ovarian) of 65 µM and a TGI (OVCAR-5 ovarian) of 27 µM. The TGI (SF-295 CNS) was 26.5 µM, the TGI (OVCAR-3 ovarian) was 29.8 µM and the TGI (MALME-3M melanoma) was 33.3 µM. The TGI (SN12C renal) was 58.6 µM, the TGI (786-0 renal) was 25.4 µM and the TGI (RPMI-8226 leukemia) was 46.9 µM. For the same compound, the TGI (SR leukemia) was 13.9 µM, the TGI (SW-620 colon) was 28.8 µM and the TGI (MDA-N) was 34.6 µM. The TGI (HCT-116 colon) was 18.2 µM, the TGI (CAKI-1 renal) was 34.9 µM and the TGI (HCC-2998 colon) was 41.8 µM. The TGI (MOLT-4 leukemia) was 36.1 µM, the TGI (A498 renal) was 32.1 µM and the TGI (HT29 colon) was 31.7 µM. It also gave a TGI (COLO 205 colon) of 27.6 µM, a TGI (UO-31 renal) of 25.1 µM and a TGI (MDA-MB-435) of 29.3 µM. The TGI (SF-539 CNS) was 60.3 µM, the TGI (MCF7 breast) was 33.4 µM and the TGI (K-562 leukemia) was 29.6 µM. The TGI (M14 melanoma) was 26 µM and the TGI (TK-10 renal) was 38.1 µM.

CSc1c(S(C)=O)c2ccccc2n1C (centres undefined) gave a TGI (HOP-62 NSCLC) of over 100 µM, a TGI (KM12 colon) of over 100 µM and a TGI (UACC-257 melanoma) of over 100 µM. For the same compound, the TGI (SK-OV-3 ovarian) was over 100 µM, the TGI (DU-145 prostate) was over 100 µM and the TGI (EKVX NSCLC) was over 100 µM. The TGI (NCI-H226 lung) was over 100 µM, the TGI (MDA-MB-231 breast) was over 100 µM and the TGI (PC-3 prostate) was over 100 µM. It also gave a TGI (LOX IMVI melanoma) of over 100 µM, a TGI (RXF 393 renal) of over 100 µM and a TGI (SK-MEL-5 melanoma) of over 100 µM. The TGI (ACHN renal) was over 100 µM, the TGI (NCI/ADR-RES ovarian) was over 100 µM and the TGI (HL-60(TB) leukemia) was over 100 µM. It also gave a TGI (NCI-H460 lung) of over 100 µM, a TGI (IGROV1 ovarian) of over 100 µM and a TGI (SK-MEL-2 melanoma) of over 100 µM. The TGI (HCT-15 colon) was over 100 µM, the TGI (NCI-H23 lung) was over 100 µM and the TGI (HS 578T breast) was over 100 µM. For the same compound, the TGI (NCI-H522 lung) was over 100 µM, the TGI (T-47D breast) was over 100 µM and the TGI (SF-268 CNS) was over 100 µM. It also gave a TGI (UACC-62 melanoma) of over 100 µM, a TGI (A549 NSCLC) of over 100 µM and a TGI (CCRF-CEM leukemia) of over 100 µM. The TGI (SNB-19 CNS) was over 100 µM, the TGI (SNB-75 CNS) was over 100 µM and the TGI (OVCAR-4 ovarian) was over 100 µM. It also gave a TGI (OVCAR-8 ovarian) of over 100 µM, a TGI (OVCAR-5 ovarian) of over 100 µM and a TGI (SF-295 CNS) of over 100 µM. It also gave a TGI (OVCAR-3 ovarian) of over 100 µM, a TGI (MALME-3M melanoma) of over 100 µM and a TGI (SN12C renal) of over 100 µM. It also gave a TGI (786-0 renal) of over 100 µM, a TGI (RPMI-8226 leukemia) of over 100 µM and a TGI (SR leukemia) of over 100 µM. The TGI (SW-620 colon) was over 100 µM, the TGI (MDA-N) was over 100 µM and the TGI (HCT-116 colon) was over 100 µM. For the same compound, the TGI (CAKI-1 renal) was over 100 µM, the TGI (SK-MEL-28 melanoma) was over 100 µM and the TGI (HCC-2998 colon) was over 100 µM. The TGI (MOLT-4 leukemia) was over 100 µM, the TGI (A498 renal) was over 100 µM and the TGI (HT29 colon) was over 100 µM. The TGI (COLO 205 colon) was over 100 µM, the TGI (UO-31 renal) was over 100 µM and the TGI (MDA-MB-435) was over 100 µM. It also gave a TGI (SF-539 CNS) of over 100 µM, a TGI (MCF7 breast) of over 100 µM and a TGI (K-562 leukemia) of over 100 µM. It also gave a TGI (M14 melanoma) of over 100 µM and a TGI (TK-10 renal) of over 100 µM.
